Laboratory results as given in BindingDB's records for doi:10.1111/cbdd.12570 (University of Milano, 2015).
Where a name gives a salt, the structure may show the parent alone.

Target: Putative heat shock protein HSP 90-alpha A4 (Homo sapiens, UniProt Q58FG1)
Experiment: Fluorescence Polarization (FP) Assay
Procedure: The fluorescence polarization (FP) assay was performed as described in the reference (Bioorg Med Chem. 2010. 18:6031-6043).

Sequence of Putative heat shock protein HSP 90-alpha A4 (Q58FG1 whole entry): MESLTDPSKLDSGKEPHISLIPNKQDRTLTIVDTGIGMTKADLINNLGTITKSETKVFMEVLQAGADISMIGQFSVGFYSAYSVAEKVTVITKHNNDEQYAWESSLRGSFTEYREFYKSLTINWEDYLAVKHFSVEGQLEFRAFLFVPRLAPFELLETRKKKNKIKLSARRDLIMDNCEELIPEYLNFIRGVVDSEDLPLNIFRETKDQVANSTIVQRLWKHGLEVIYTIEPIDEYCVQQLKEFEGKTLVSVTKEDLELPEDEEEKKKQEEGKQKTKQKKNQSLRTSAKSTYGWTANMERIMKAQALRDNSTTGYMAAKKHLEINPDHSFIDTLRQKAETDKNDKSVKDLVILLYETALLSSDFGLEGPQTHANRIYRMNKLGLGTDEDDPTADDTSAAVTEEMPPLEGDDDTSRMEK

| Compound | IC50 [µM] |
| --- | --- |
| NC(=O)c1ccc(-c2noc3c2CCCC3=NOCCN2CCOCC2)cc1 [4-(7-(2-Morpholin-4-yl-ethoxyimino)-4,5,6,7-tetrahydrobenzo[d]isoxazol-3-yl)benzamide (21b)] | > 100 |
| NC(=O)c1ccc(-c2noc3c2CCCC3=O)cc1 [4-(7-Oxo-4,5,6,7-tetrahydrobenzo[d]isoxazol-3-yl)-benzamide (20)] | > 100 |
| NCCON=C1CCCc2c(-c3ccc(C(N)=O)cc3)noc21 [4-(7-(2-Aminoethoxyimino)-4,5,6,7-tetrahydrobenzo[d]isoxazol-3-yl)-benzamide hydrochloride (21c)] | > 100 |
| NC(=O)c1ccc(-c2noc3c2CCCC3O)cc1 (configuration not stated) [4-(7-Hydroxy-4,5,6,7-tetrahydro-benzo[d]isoxazol-3-yl)benzamide (22)] | > 100 |
| NC(=O)c1ccc(-c2noc3c2CCCC3=NO)cc1 [4-(7-Hydroxyimino-4,5,6,7-tetrahydro-benzo[d]isoxazol-3-yl)benzamide (21a)] | > 100 |

Stronger by IC50, values ahead:

| IC50 [µM] | Compound |
| --- | --- |
| 26 | Oc1cc(O)c(-c2noc3c2CCCC3O)cc1Cl (configuration not stated) [3-(5-chloro-2,4-dihydroxyphenyl)-4,5,6,7-tetrahydro-benzo[d]isoxazol-7-ol (14)] |
| 10 | CN1CCc2c(-c3cc(Cl)c(O)cc3O)noc2C1=O [3-(5-chloro-2,4-dihydroxyphenyl)-5,6-dihydro-6-methylisoxazolo[5,4-c]pyridin-7(4H)-one (9a)] |
| 6.3 | NCCON=C1CCCc2c(-c3cc(Cl)c(O)cc3O)noc21 [3-(5-chloro-2,4-dihydroxyphenyl)-5,6-dihydro-4H-benzo[d]isoxazol-7-one O-(2-aminoethyl)-oxime hydrochloride (16)] |
| 4.8 | O=C1CCCc2c(-c3cc(Cl)c(O)cc3O)noc21 [3-(5-chloro-2,4-dihydroxyphenyl)-5,6-dihydrobenzo[d]isoxazol-7(4H)-one (13)] |
| 1.6 | O=C1NCCc2c(-c3cc(Cl)c(O)cc3O)noc21 [3-(5-chloro-2,4-dihydroxyphenyl)-5,6-dihydroisoxazolo[5,4-c]pyridin-7(4H)-one (9b)] |
| 1.09 | C=CCNC1=C2C[C@@H](C)C[C@H](OC)C[C@@H](C)/C=C/[C@H](OC(N)=O)[C@@H](OC)/C=C\C=C(/C)C(=O)NC(=CC1=O)C2=O [17-AAG] |
| 0.8 | ON=C1CCCc2c(-c3cc(Cl)c(O)cc3O)noc21 [3-(5-chloro-2,4-dihydroxyphenyl)-5,6-dihydro-4H-benzo[d]isoxazol-7-one oxime (15)] |
